# Results from US7348421B1, “Methods for production of p-hydroxybenzoate in bacteria” (North Carolina State University, priority 2000, dated 2008).
# Read-outs that look alike come from different tables or passages of the source.
# Assays:
# [1] = test system: Pseudomonas putida DOT-T1E (wild-type); format: cell-based; details: for concentration that the strain tolerated: Wild-type, aromatic carboxylic acid gradient, 20 h at 30° C.; for tolerance to amino acid / tolerance to paraben: T1E; for tolerance to amino acid: gradient 0 to 50 g/L; for tolerance to paraben: gradient up to 2, 1.54, 0.8, 0.3 g/L for methyl-, ethyl-, propyl-, butylparaben
# [2] = test system: PhoA5 pPAT7; format: cell-based, Pseudomonas putida; details: for tolerance to aromatic carboxylic acids: PhoA5(pPAT7), double diffusion plates; for tolerance to amino acid / tolerance to paraben: PhoA5 pPAT7; for tolerance to amino acid: gradient 0 to 50 g/L; for tolerance to paraben: same gradients
# [3] = test system: P. putida PhoA5; format: cell-based, Pseudomonas putida; details: for concentration that the strain tolerated: aromatic carboxylic acid gradient, 20 h at 30° C.; for tolerance to amino acid: gradient 0 to 50 g/L; for tolerance to paraben: same gradients
# [4] = octanol-water; cited from earlier work
# [5] = test system: Pseudomonas putida DOT-T1E; assay: Halo-inhibition test with antibiotic disks on minimal medium; format: cell-based; details: for tolerance/sensitivity to antibiotic: wild-type, Halo-inhibition test; for size of the inhibition halo: strain T1E, 6-mm disks, µg per disk as, minimal medium
# [6] = test system: T1E pPAT7; format: cell-based, Pseudomonas putida; details: for tolerance to amino acid: gradient 0 to 50 g/L; for tolerance to paraben: same gradients
# [7] = test system: DOT-T1E; format: cell-based, Pseudomonas putida; details: wild-type, 0.3% (vol/vol) toluene
# [8] = test system: toluene-tolerant strain; assay: Enrichment selection in flasks, toluene; format: cell-based; details: slow rate of growth
# Procedure: Using a similar procedure with toluene, a toluene-tolerant strain (with a slow rate of growth on 150 ppm of toluene) was obtained. Adding 10 mM MgSO4 increased the tolerance of the organism to toluene.
# [9] = test system: adapted strain; details: after 11 transfers; slow rate
# [10] = test system: PhoA5 mutant; details: 3 μg/mL EDDHA, M9 with glucose; overcome by adding Fe-citrate
# [11] = test system: wild-type strain (DOT-T1E); details: 3 μg/mL EDDHA, M9 with glucose
molecule,measurement,setting,value
p-methoxybenzoate,concentration that the strain tolerated,[1],19 g/L
same,tolerance to aromatic carboxylic acids,[2],as tolerant as the wild-type
same,concentration that the strain tolerated,[3],9.1 g/L
O=C(O)c1cccc(Cl)c1 [m-chlorobenzoate],concentration that the strain tolerated,[1],4.5 g/L
same,tolerance to aromatic carboxylic acids,[2],as tolerant as the wild-type
same,concentration that the strain tolerated,[3],3.0 g/L
CCCCCCCCO [1-octanol],log Pow,[4],2.8
COc1cccc(C(=O)O)c1 [m-methoxybenzoate],concentration that the strain tolerated,[1],12 g/L
same,tolerance to aromatic carboxylic acids,[2],as tolerant as the wild-type
same,concentration that the strain tolerated,[3],7.2 g/L
CC[C@H]1OC(=O)[C@H](C)[C@@H](O[C@H]2C[C@@](C)(OC)[C@@H](O)[C@H](C)O2)[C@H](C)[C@@H](O[C@@H]2O[C@H](C)C[C@H](N(C)C)[C@H]2O)[C@](C)(O)C[C@@H](C)C(=O)[C@H](C)[C@@H](O)[C@]1(C)O [erythromycin],tolerance/sensitivity to antibiotic,[5],tolerant
"N[C@@H](Cc1c[nH]cn1)C(=O)O [Histidine, L-histidine]",tolerance to amino acid,[1],31.2 g/L
same,tolerance to amino acid,[1]; listed as histidine,~31 g/L
same,tolerance to amino acid,[6],30.6 g/L
same,tolerance to amino acid,[2],29.4 g/L
same,tolerance to amino acid,[3],22.3 g/L
same,tolerance to amino acid,[3]; listed as histidine,about 23 g/L
"CCCOC(=O)c1ccc(O)cc1 [PB, propylparabene]",tolerance to paraben,[1],>0.8 g/L
same,tolerance to paraben,[6],>0.8 g/L
same,tolerance to paraben,[2],>0.8 g/L
same,tolerance to paraben,[3],>0.8 g/L
same,tolerance to paraben,[3]; listed as propylparaben,at least 0.8 g/L
Cc1ccccc1 [toluene],survival of toluene shock,[7]; cells pre-exposed to toluene in the gas phase,tolerated the shock
same,loss of viability after sudden exposure to toluene,[7]; non-pre-exposed cells,5 orders of magnitude
same,toluene concentration at which the strain grew,[8],150 ppm
"O=C(O)c1cn(C2CC2)c2cc(N3CCNCC3)c(F)cc2c1=O [CIP, ciprofloxacine]",size of the inhibition halo,[5],21 mm
same,tolerance/sensitivity to antibiotic,[5],sensitive
CC(=O)O [acetate],acetate concentration at which the adapted strain was able to grow,[9],200 mM
"CCCCOC(=O)c1ccc(O)cc1 [BP, butylparabene]",tolerance to paraben,[1],>0.3 g/L
same,tolerance to paraben,[6],>0.3 g/L
same,tolerance to paraben,[2],>0.3 g/L
same,tolerance to paraben,[3],>0.3 g/L
same,tolerance to paraben,[3]; listed as butylparaben,≥ 0.3 g/L
CN[C@H](CC(C)C)C(=O)N[C@H]1C(=O)N[C@@H](CC(N)=O)C(=O)N[C@H]2C(=O)N[C@H]3C(=O)N[C@H](C(=O)N[C@H](C(=O)O)c4cc(O)cc(O)c4-c4cc3ccc4O)[C@H](O)c3ccc(c(Cl)c3)Oc3cc2cc(c3O[C@@H]2O[C@H](CO)[C@@H](O)[C@H](O)[C@H]2O[C@H]2C[C@](C)(N)[C@H](O)[C@H](C)O2)Oc2ccc(cc2Cl)[C@H]1O [vancomycin],tolerance/sensitivity to antibiotic,[5],tolerant
"N[C@@H](Cc1c[nH]c2ccccc12)C(=O)O [Tryptophan, L-tryptophan]",tolerance to amino acid,[1],35.3 g/L
same,tolerance to amino acid,[1]; listed as tryptophan,~35 g/L
same,tolerance to amino acid,[6],38.8 g/L
same,tolerance to amino acid,[2],22.9 g/L
same,tolerance to amino acid,[2]; listed as tryptophan,more sensitive than the wild-type
same,tolerance to amino acid,[3],23.5 g/L
same,tolerance to amino acid,[3]; listed as tryptophan,about 23 g/L
"C[C@@H](O)[C@H]1C(=O)N2C(C(=O)O)=C(SCCN=CN)C[C@H]12 [IPM, imipenen]",size of the inhibition halo,[5],26 mm
same,tolerance/sensitivity to antibiotic,[5],sensitive
"N[C@@H](Cc1ccc(O)cc1)C(=O)O [Tyrosine, L-tyrosine]",tolerance to amino acid,[1],about 40 g/L
same,tolerance to amino acid,[3],25.3 g/L
same,tolerance to amino acid,[3]; listed as tyrosine,about 23 g/L
Nc1ccccc1C(=O)O [o-aminobenzoate],concentration that the strain tolerated,[1],8.7 g/L
same,tolerance to aromatic carboxylic acids,[2],as tolerant as the wild-type
same,concentration that the strain tolerated,[3],5.0 g/L
C1CCCCC1 [cyclohexane],log Pow,[4],3.2
gentamycin [GM],size of the inhibition halo,[5],17 mm
same,tolerance/sensitivity to antibiotic,[5],equally sensitive
Cc1ccc(C(=O)O)cc1 [p-methylbenzoate],concentration that the strain tolerated,[1],14.5 g/L
same,tolerance to aromatic carboxylic acids,[2],as tolerant as the wild-type
same,concentration that the strain tolerated,[3],7.4 g/L
CC1(C)S[C@@H]2[C@H](NC(=O)[C@H](N)c3ccccc3)C(=O)N2[C@H]1C(=O)O [ampicillin],tolerance/sensitivity to antibiotic,[5],tolerant
O=C(O)c1ccccc1Cl [o-chlorobenzoate],concentration that the strain tolerated,[1],14.5 g/L
same,tolerance to aromatic carboxylic acids,[2],as tolerant as the wild-type
same,concentration that the strain tolerated,[3],6.0 g/L
Nc1ccc(C(=O)O)cc1 [p-aminobenzoate],concentration that the strain tolerated,[1],13.0 g/L
same,tolerance to aromatic carboxylic acids,[2],as tolerant as the wild-type
same,concentration that the strain tolerated,[3],7.8 g/L
CCc1ccccc1 [ethylbenzene],log Pow,[4],3.1
"CN(C)[C@@H]1C(O)=C(C(N)=O)C(=O)[C@@]2(O)C(O)=C3C(=O)c4c(O)cccc4[C@@](C)(O)[C@H]3C[C@@H]12 [TE, tetracycline]",size of the inhibition halo,[5],21 mm
"CO/N=C(\C(=O)N[C@@H]1C(=O)N2C(C(=O)O)=C(COC(C)=O)CS[C@H]12)c1csc(N)n1 [CTX, cefotaxime]",size of the inhibition halo,[5],14 mm
same,tolerance/sensitivity to antibiotic,[5],sensitive
"O=C(O)C(NCCNC(C(=O)O)c1ccccc1O)c1ccccc1O (centres unmarked) [EDDHA, ethylenediamine-di (o-hydroxyphenylacetic acid)]",growth in the presence of iron chelator,[10],severely inhibited
same,growth in the presence of iron chelator,[11],grew under all culture conditions
"CCn1cc(C(=O)O)c(=O)c2ccc(C)nc21 [NA, nalidixic acid]",size of the inhibition halo,[5],15 mm
same,tolerance/sensitivity to antibiotic,[5],equally sensitive
"CCOC(=O)c1ccc(O)cc1 [EB, ethylparabene]",tolerance to paraben,[1],>1.54 g/L
same,tolerance to paraben,[2],1.54 g/L
same,tolerance to paraben,[2]; listed as ethylparaben,as tolerant as the wild-type strain
same,tolerance to paraben,[3],~1.4 g/L
"[H]/N=C(/N)N[C@H]1[C@H](O)[C@@H](O)[C@H](O[C@@H]2O[C@@H](C)[C@](O)(C=O)[C@H]2O[C@@H]2O[C@@H](CO)[C@H](O)[C@@H](O)[C@@H]2NC)[C@@H](N/C(N)=N\[H])[C@@H]1O [SM, streptomycin]",size of the inhibition halo,[5],16 mm
same,tolerance/sensitivity to antibiotic,[5],equally sensitive
Nc1cccc(C(=O)O)c1 [m-aminobenzoate],concentration that the strain tolerated,[1],14.8 g/L
same,tolerance to aromatic carboxylic acids,[2],as tolerant as the wild-type
same,concentration that the strain tolerated,[3],7.5 g/L
Cc1ccc(C)cc1 [p-xylene],log Pow,[4],3.0
CCCCCCC [heptane],log Pow,[4],4.5
"CCn1cc(C(=O)O)c(=O)c2cc(F)c(N3CCNCC3)cc21 [NOR, norfloxacine]",size of the inhibition halo,[5],20 mm
same,tolerance/sensitivity to antibiotic,[5],sensitive
COc1ccccc1C(=O)O [o-methoxybenzoate],concentration that the strain tolerated,[1],17 g/L
same,tolerance to aromatic carboxylic acids,[2],as tolerant as the wild-type
same,concentration that the strain tolerated,[3],8.5 g/L
"CCN1CCN(C(=O)N[C@@H](C(=O)N[C@@H]2C(=O)N3[C@@H]2SC(C)(C)[C@@H]3C(=O)O)c2ccccc2)C(=O)C1=O [PIP, piperacillin]",size of the inhibition halo,[5],18 mm
same,tolerance/sensitivity to antibiotic,[5],equally sensitive
CCCc1ccccc1 [propylbenzene],log Pow,[4],3.6
"COC(=O)c1ccc(O)cc1 [MB, methylparabene]",tolerance to paraben,[1],>2 g/L
same,tolerance to paraben,[6],>2 g/L
same,tolerance to paraben,[2],>2.0 g/L
same,tolerance to paraben,[2]; listed as methylparaben,as tolerant as the wild-type strain
same,tolerance to paraben,[3],1.0 g/L
same,tolerance to paraben,[3]; listed as methylparaben,about 1 g/L
